Earlier results on one sequence are cited in paper PMC3357532, “Intracellular Loop 2 Peptides of the Human 5HT1a Receptor are Differential Activators of Gi” (International Journal of Peptides, 2012).

Series [1] addresses T1, H5-HT1aR (Homo sapiens, UniProt P08908).
T1 construct: expressed in transfected cells; host or cells: CHO cells (Chinese hamster ovary), crude membranes
T1 sequence (P08908 1-422): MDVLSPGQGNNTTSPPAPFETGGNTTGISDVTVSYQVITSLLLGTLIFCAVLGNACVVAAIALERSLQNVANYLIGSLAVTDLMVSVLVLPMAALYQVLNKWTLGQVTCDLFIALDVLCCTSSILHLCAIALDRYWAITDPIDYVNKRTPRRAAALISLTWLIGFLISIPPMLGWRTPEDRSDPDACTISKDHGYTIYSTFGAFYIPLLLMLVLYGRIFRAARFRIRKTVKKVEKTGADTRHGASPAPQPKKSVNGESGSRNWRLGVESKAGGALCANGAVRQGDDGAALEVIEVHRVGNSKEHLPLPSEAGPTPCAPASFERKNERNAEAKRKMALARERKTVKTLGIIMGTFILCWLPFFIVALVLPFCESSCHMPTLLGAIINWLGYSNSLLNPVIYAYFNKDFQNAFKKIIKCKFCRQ
As to conditions: ref Hayataka et al., 1998 [49], cited from earlier work. An excerpt: (§1) Table 2 ic2 Peptide mimic effect on [3H]8-OH-DPAT binding. All binding inhibition values are percent of control agonist (ag.) bound. The upper portion of the table is for peptides nearer the C-terminus, including P11 from Thiagaraj et al., 2007 [53]. These peptides decreased the specific high affinity binding of 5HT1aR agonist [^3H]-8-OH-DPAT by 50% at the given concentration. The lower portion | column: Conc. (uM); % cont. ag, bound, (SEM) || Table 3 ic3 Peptide mimic coupling and signal transduction data. Summary of data generated for all ic3 experiments with P12 and P13. P1 is included as a reference, from Hayataka et al., 1998 [49]. Nominal values for control agonist binding were 400 fmoles/mg protein. | column: Agonist (%) inhibition

Series [2] concerns CHO cells expressing the human 5HT1aR. Conditions: peptide 10 uM; ref Hayataka et al., 1998 [49]; read-out: % Inhibition of FSK-stimulated cAMP; cited from earlier work.
Text: as §1, with “[cAMP]” for “Conc. (uM); % cont. ag, bound,”, “% Inhibition of FSK-stimulated cAMP” for “Agonist (%) inhibition”

In series [3] the test system is Gi in H5-HT1aR membranes from transfected CHO cells. Conditions: peptide 1 uM; ref Hayataka et al., 1998 [49]; cited from earlier work.
Text: as §1, with “GTP Incorp.” for “Conc. (uM); % cont. ag, bound,”, “[35S]-γ-S-GTP incorporation% above conro” for “Agonist (%) inhibition”

As usually defined, the inhibition is the drop in the measured response relative to a control, in per cent. Consider IFRAARFRIRKTVKK [P1*], for which the IC50 in series [1] ([3H]8-OH-DPAT, read-out: Agonist (%) inhibition: concentration giving 50% (IC50)) was 3000 nM. In addition, the inhibition in series [1] (peptide 3 uM, read-out: Agonist (%) inhibition) is 50%; in series [2] it was 10%. Further, the “[35S]-γ-S-GTP incorporation% above conro” value in series [3] is 30%.
